Counter-ions that a name gives are not always drawn.
Target: T1, human GPR40 (Homo sapiens, UniProt O14842)
T1 construct: expressed in transfected cells
Assay: Ca2+ mobilization (FLIPR) in a stable GPR40-expressing cell; GPR40 agonist activity
Format: cell-based
Conditions: compound concentration corresponding to 50% PosiC, 100% = intracellular calcium level induced by 80 μM palmitic acid
Procedure: Evaluation of effect of test compounds on Ca^2+ mobilization by using a stable GPR40-expressing cell A stable human GPR40-expressing HEK293 cell was used. A cell suspension was prepared such that the above-mentioned cells were present at 6×10^5 cells/mL in a cell culture medium (D-MEM (Nikken Bio Medical Laboratory) supplemented with 10% (v/v) fetal bovine serum (Biowest) and 1% (v/v) penicillin-streptomycin solution (Invitrogen)). The cell suspension was plated in a 384-well plate (poly-D-lysine coated plate; Falcon) in a volume of 25 μl/well, and the plate was incubated at 37° C. in an atmosphere of 5% CO2 overnight. Each test compound was added to the cell at each concentration as below, and then the change in intracellular calcium level was measured by FLIPR^TETRA (Molecular Devices). Before the FLIPR assay, the following preparative solutions were prepared. First, an assay buffer was prepared for use in the preparation of a fluorescent dye solution and a diluent buffer solution. The assay buffer was prepared by adding 1M HEPES solution (Invitrogen) to Hanks' Balanced Salt Solution (Invitrogen), followed by adjusting the pH to 7.4 with 1M NaOH (Nacalai Tesque). Next, the fluorescent dye solution and the diluent buffer solution were prepared. The fluorescent dye solution was prepared in accordance with the instruction manual attached to Fluo-4NW calcium assay kit (Invitrogen), followed by addition of bovine serum albumin (Sigma) to a final concentration of 0.1% (w/v). The diluent buffer solution was prepared by adding bovine serum albumin (Sigma) to the assay buffer to give a final concentration of 0.1% (w/v). After removing a medium supernatant from the cell culture plate incubated overnight, the fluorescent dye solution was added to the plate in a volume of 25 μl/well. The plate was incubated at 37° C. in an atmosphere of 5% CO2 for 90 minutes to promote the fluorescent dye uptake in the cell. Meanwhile, the test compounds (i.e., the compounds prepared in Examples) dissolved in dimethyl sulfoxide (DMSO; Nacalai Tesque) were diluted with the diluent buffer solution, to prepare each compound solution at each concentration. In addition, a palmitic acid solution was prepared as a positive control solution (hereinafter abbreviated as PosiC). A 40 μl aliquot of each sample solution prepared as above was added to each well of a 384-well polypropylene plate to prepare a compound plate. Finally, after the sufficient uptake of the fluorescent dye in the cell, the cell plate and the compound plate were set to FLIPR^TETRA. After the above pretreatment, the change in intracellular calcium level was measured by FLIPR^TETRA upon addition of 25 μl of each test compound solution at each concentration. The GPR40 agonist activity of each test compound at each concentration was determined as a relative activity level (% PosiC) with the intracellular calcium level induced by 80 μM palmitic acid (a GPR40 agonist) set to 100%. Next, each compound concentration corresponding to 50% PosiC was calculated based on the % PosiC value, to compare between agonist activities of the test compounds. In the tables, “++++” indicates 0.01 μM or more but less than 0.1 μM, “+++” indicates 0.1 μM or more but less than 1 μM, “++” indicates 1 μM or more but less than 10 μM, and “+” indicates 10 μM or more for 50% posiC value. In the tables, “N.T.” indicates “not tested”.

T1 sequence (O14842 whole entry): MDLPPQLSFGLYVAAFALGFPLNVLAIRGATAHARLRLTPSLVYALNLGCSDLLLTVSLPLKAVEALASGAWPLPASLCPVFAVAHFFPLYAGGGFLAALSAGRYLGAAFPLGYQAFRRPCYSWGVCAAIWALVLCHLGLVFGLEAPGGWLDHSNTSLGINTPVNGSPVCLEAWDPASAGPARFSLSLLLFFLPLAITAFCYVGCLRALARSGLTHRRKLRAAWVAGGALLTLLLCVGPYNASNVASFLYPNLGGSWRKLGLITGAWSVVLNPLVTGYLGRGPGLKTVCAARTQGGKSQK

Row | Compound | EC50
1 | C=CC(CC(=O)O)c1ccc(OCC2CCCC3(CCCCC3)C2)cc1 (racemic) [Example 86, 3-[4-(spiro[5.5]undec-2-ylmethoxy)-phenyl]-pent-4-enoic acid] | 1000 to 10000 nM
2 | O=C(O)CCc1ccc(OCC2CCCC3(CCCC3)C2)nc1 (racemic) [Example 113, 3-[6-(spiro[4.5]dec-7-ylmethoxy)-pyridin-3-yl]-propionic acid hydrochloride] | 1000 to 10000 nM
3 | COC1CCC2(CCC(COc3ccc(CCC(=O)O)cc3)CC2)CC1 (racemic) [Example 114, 3-[4-(9-methoxy-spiro[5.5]undec-3-ylmethoxy)-phenyl]-propionic acid] | ≥ 10000 nM
4 | CC#CC(CC(=O)O)c1ccc(COC2CCCC3(CCCCC3)C2)cc1 (racemic) [Example 82, 3-[4-(spiro[5.5]undec-2-yloxymethyl)-phenyl]-hex-4-ynoic acid] | 1000 to 10000 nM
5 | CC1(C)CCC=CC12CCCC(COc1ccc(CCC(=O)O)cc1)C2 (racemic) [Example 55, 3-[4-(11,11-dimethyl-spiro[5.5]undec-7-en-2-ylmethoxy)-phenyl]-propionic acid] | 100 to 1000 nM
6 | CC#C[C@@H](CC(=O)O)c1ccc(OCC2=C[C@]3(CCC2)CC[C@H](O)C3)cc1 [Example 107, (3S)-3-[4-((2S,5R)-2-hydroxy-spiro[4.5]dec-6-en-7-ylmethoxy)-phenyl]-hex-4-ynoic acid sodium salt] | 100 to 1000 nM
7 | CC#C[C@H](CC(=O)O)c1ccc(OCC2CCCC3(CCCCC3)C2)cc1 (mixture of isomers) [Example 58, (3R)-3-[4-(spiro[5.5]undec-2-ylmethoxy)-phenyl]-hex-4-ynoic acid] | 1000 to 10000 nM
8 | O=C(O)CCc1ccc(OCC2CCC3(CCCCC3)C2)cc1 (racemic) [Example 52, 3-[4-(spiro[4.5]dec-2-ylmethoxy)-phenyl]-propionic acid] | 1000 to 10000 nM
9 | CC#C[C@@H](CC(=O)O)c1ccc(OCC2CCC3(CCCC3)C2)cc1 (mixture of isomers) [Example 30, (3S)-3-[4-(spiro[4.4]non-2-ylmethoxy)-phenyl]-hex-4-ynoic acid] | 100 to 1000 nM
10 | CC#C[C@@H](CC(=O)O)c1ccc(OCC2CCC3(CCCCC3)C2)cc1 (stereo partly drawn) [Example 27, (3S)-3-[4-(spiro[4.5]dec-2-ylmethoxy)-phenyl]-hex-4-ynoic acid sodium salt] | 100 to 1000 nM
11 | CC#C[C@@H](CC(=O)O)c1ccc(OC2CCCC3(CCCCC3)C2)cc1 (mixture of isomers) [Example 64, (3S)-3-[4-(spiro[5.5]undec-2-yloxy)-phenyl]-hex-4-ynoic acid] | 100 to 1000 nM
12 | O=C(O)CC(c1ccc(OCC2CCCC3(CCCCC3)C2)cc1)c1ncco1 (racemic) [Example 66, 3-oxazol-2-yl-3-[4-(spiro[5.5]undec-2-ylmethoxy)-phenyl]-propionic acid] | 100 to 1000 nM
13 | C#CC(CC(=O)O)c1ccc(OCC2CCCC3(CCCCC3)C2)cc1 (racemic) [Example 85, 3-[4-(spiro[5.5]undec-2-ylmethoxy)-phenyl]-pent-4-ynoic acid] | 1000 to 10000 nM
14 | CC#C[C@@H](CC(=O)O)c1ccc(OCC2=CCC3(CCCCC3)CC2)cc1 [Example 73, (3S)-3-[4-(spiro[5.5]undec-2-en-3-ylmethoxy)-phenyl]-hex-4-ynoic acid] | 100 to 1000 nM
15 | CC#C[C@@H](CC(=O)O)c1ccc(OCC2CCCC3(CCCCC3)C2)cc1 (single isomer, unassigned) [Example 32] | 100 to 1000 nM
16 | COc1cc(CCC(=O)O)ccc1OCC1=CC2(CCCC2)CCC1 [Example 111, 3-[3-methoxy-4-(spiro[4.5]dec-6-en-7-ylmethoxy)-phenyl]-propionic acid] | ≥ 10000 nM
17 | CCOC(CC(=O)O)c1ccc(OCC2=CC3(CCCCC3)CCC2)cc1 (single isomer, unassigned; (+)) [Example 44, (+)-3-ethoxy-3-[4-(spiro[5.5]undec-1-en-2-ylmethoxy)-phenyl]-propionic acid] | 1000 to 10000 nM
18 | C/C=C\[C@@H](CC(=O)O)c1ccc(OCC2CCCC3(CCCCC3)C2)cc1 (mixture of isomers) [Example 77, (Z)-(3R)-3-[4-(spiro[5.5]undec-2-ylmethoxy)-phenyl]-hex-4-enoic acid] | 100 to 1000 nM
19 | CC1(C)C=CC2(CCCC(COc3ccc(CCC(=O)O)cc3)C2)CC1 (racemic) [Example 53, 3-[4-(9,9-dimethyl-spiro[5.5]undec-7-en-2-ylmethoxy)-phenyl]-propionic acid] | 1000 to 10000 nM
20 | O=C(O)CCc1ccc(OCC2CCCC3(CCCCC3)C2)cc1 (racemic) [Example 46, 3-[4-(spiro[5.5]undec-2-ylmethoxy)-phenyl]-propionic acid] | 1000 to 10000 nM
21 | O=C(O)CCc1ccc(OCC2CCCC3(CCCCCC3)C2)cc1 (racemic) [Example 49, 3-[4-(spiro[5.6]dodec-2-ylmethoxy)-phenyl]-propionic acid] | 1000 to 10000 nM
22 | CC#C[C@@H](CC(=O)O)c1ccc(OCC2=CC3(CCCCC3)CCC2)cc1 [Example 9, (S)-3-[4-(spiro[5.5]undec-1-en-2-ylmethoxy)-phenyl]-hex-4-ynoic acid] | 100 to 1000 nM
23 | CNC(=O)C(CC(=O)O)c1ccc(OCC2CCCC3(CCCCC3)C2)cc1 (racemic) [Example 65, N-methyl-3-[4-(spiro[5.5]undec-2-ylmethoxy)-phenyl]-succinamic acid] | 1000 to 10000 nM
24 | CCC(CC(=O)O)c1ccc(OCC2CCCC3(CCCCC3)C2)cc1 (racemic) [Example 87, 3-[4-(spiro[5.5]undec-2-ylmethoxy)-phenyl]-pentanoic acid] | 1000 to 10000 nM

Results, then the compound that gave them:

Row | EC50 | Compound
25 | 100 to 1000 nM | CN(C)C(=O)C(CC(=O)O)c1ccc(OCC2CCCC3(CCCCC3)C2)cc1 (racemic) [Example 59, N,N-dimethyl-3-[4-(spiro[5.5]undec-2-ylmethoxy)-phenyl]-succinamic acid]
26 | 100 to 1000 nM | CC#C[C@@H](CC(=O)O)c1ccc(OCC2CCCC3(CCCCC3)C2)cc1 (stereo partly drawn) [Example 29, (3S)-3-[4-(spiro[5.5]undec-2-ylmethoxy)-phenyl]-hex-4-ynoic acid sodium salt]
27 | 100 to 1000 nM | CC#C[C@@H](CC(=O)O)c1ccc(OCC2CCCC3(CCCC3)C2)cc1 (single isomer, unassigned) [Example 39]
28 | 10 to 100 nM | CCOC(CC(=O)O)c1ccc(OCC2=CC3(CCCCC3)CCC2)cc1 (single isomer, unassigned; (-)) [Example 42, (−)-3-ethoxy-3-[4-(spiro[5.5]undec-1-en-2-ylmethoxy)-phenyl]-propionic acid]
29 | 100 to 1000 nM | CC#C[C@@H](CC(=O)O)c1ccc(OCC2=CCCC3(CCCCC3)C2)cc1 [Example 119, (S)-3-[4-(spiro[5.5]undec-2-en-2-ylmethoxy)-phenyl]-hex-4-ynoic acid L-lysine salt]
30 | 100 to 1000 nM | CC#C[C@@H](CC(=O)O)c1ccc(OCC2=CC3(CCCC3)CCC2)cc1 [Example 8, (S)-3-[4-(spiro[4.5]dec-6-en-7-ylmethoxy)-phenyl]-hex-4-ynoic acid sodium salt]
31 | 100 to 1000 nM | CC#C[C@@H](CC(=O)O)c1ccc(OCC2CCC3(CCCCC3)CC2)cc1 [Example 24, (S)-3-[4-(spiro[5.5]undec-3-ylmethoxy)-phenyl]-hex-4-ynoic acid]
32 | 10 to 100 nM | CCOC(CC(=O)O)c1ccc(OCC2=CC3(CCCCC3)CCC2)cc1 (racemic) [Example 41, 3-ethoxy-3-[4-(spiro[5.5]undec-1-en-2-ylmethoxy)-phenyl]-propionic acid]
33 | 10 to 100 nM | CC#C[C@@H](CC(=O)O)c1ccc(OCC2=CCCC3(CCCCC3)C2)cc1 [Example 1, (S)-3-[4-(spiro[5.5]undec-2-en-2-ylmethoxy)-phenyl]-hex-4-ynoic acid]
34 | 10 to 100 nM | CC#C[C@@H](CC(=O)O)c1ccc(OCC2CCCC3(C=CCCC3(C)C)C2)cc1 (mixture of isomers) [Example 19, (3S)-3-[4-(11,11-dimethyl-spiro[5.5]undec-7-en-2-ylmethoxy)-phenyl]-hex-4-ynoic acid]
35 | 10 to 100 nM | CC#C[C@@H](CC(=O)O)c1ccc(OCC2=CCCC3(CCCCCC3)C2)cc1 [Example 4, (S)-3-[4-(spiro[5.6]dodec-2-en-2-ylmethoxy)-phenyl]-hex-4-ynoic acid sodium salt]

Reference: patent publication US8299296B2, “Spiro compounds and pharmaceutical use thereof” (Japan Tobacco Inc., priority 2007, dated 2012)
